From ChEMBL document CHEMBL5038666, “Discovery of DNA-Targeting HDAC Inhibitors with Potent Antitumor Efficacy In Vivo That Trigger Antitumor Immunity” (J Med Chem, 2022)
The source made the active and inactive calls. No cut-off for these calls is given here.

Tests used:
Histone deacetylase = assay: Inhibition of HDAC in human HeLa nuclear extract using fluorogenic substrate incubated for 30 mins by fluorescence based assay; type: cell-based
Histone deacetylase 2 = Histone deacetylase 2 (Homo sapiens, UniProt Q92769); assay: Inhibition of HDAC2 (unknown origin) using fluorogenic substrate incubated for 30 mins by fluorescence based assay
Calf thymus DNA [1] = assay: Binding affinity to calf thymus DNA assessed as increase in absorption at 20 uM by UV-vis absorption spectroscopy; type: nucleic-acid assay; details: Bos taurus
Histone deacetylase 1 = Histone deacetylase 1 (Homo sapiens, UniProt Q13547); assay: Inhibition of HDAC1 (unknown origin) using fluorogenic substrate incubated for 30 mins by fluorescence based assay
Calf thymus DNA [2] = assay: Binding affinity to calf thymus DNA assessed as change in entropy at 500 microM by isothermal titration calorimetric analysis; type: nucleic-acid assay; details: Bos taurus
KG-1 [3] = assay: Antiproliferative activity against human KG-1 cells assessed as inhibition of cell growth measured after 48 hrs by MTT assay; type: functional, cell-based; details: KG-1, 48 h
HEL = assay: cells; type: functional, cell-based; details: Homo sapiens, 48 h
Description: Antiproliferative activity against HEL cells assessed as inhibition of cell growth measured after 48 hrs by MTT assay

DNA = assay: Binding affinity to nuclear DNA in human HepG2 cells assessed as colocalization of acridine orange-test compound signal at 5 uM by confocal fluorescence microscopic analysis; type: functional, cell-based
Histone deacetylase 8 = molecular target: T1, Histone deacetylase 8 (Homo sapiens, UniProt Q9BY41); assay: Inhibition of HDAC8 (unknown origin) using fluorogenic substrate incubated for 30 mins by fluorescence based assay
T1 sequence (Q9BY41 whole entry): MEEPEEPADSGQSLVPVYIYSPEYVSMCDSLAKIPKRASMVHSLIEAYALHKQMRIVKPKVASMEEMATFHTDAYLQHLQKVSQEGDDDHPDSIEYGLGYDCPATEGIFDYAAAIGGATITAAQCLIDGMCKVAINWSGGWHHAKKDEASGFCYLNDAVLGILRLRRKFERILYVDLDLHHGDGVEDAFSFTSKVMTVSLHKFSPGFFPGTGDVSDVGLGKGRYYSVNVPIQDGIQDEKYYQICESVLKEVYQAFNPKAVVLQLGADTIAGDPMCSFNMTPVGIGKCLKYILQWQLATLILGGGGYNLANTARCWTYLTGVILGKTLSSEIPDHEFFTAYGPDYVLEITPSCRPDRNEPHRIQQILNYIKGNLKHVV

[4] = molecular target: T2, Protein deacetylase HDAC6 (Homo sapiens, UniProt Q9UBN7); assay: Inhibition of HDAC6 (unknown origin) using fluorogenic substrate incubated for 30 mins by fluorescence based assay
T2 sequence (Q9UBN7 whole entry): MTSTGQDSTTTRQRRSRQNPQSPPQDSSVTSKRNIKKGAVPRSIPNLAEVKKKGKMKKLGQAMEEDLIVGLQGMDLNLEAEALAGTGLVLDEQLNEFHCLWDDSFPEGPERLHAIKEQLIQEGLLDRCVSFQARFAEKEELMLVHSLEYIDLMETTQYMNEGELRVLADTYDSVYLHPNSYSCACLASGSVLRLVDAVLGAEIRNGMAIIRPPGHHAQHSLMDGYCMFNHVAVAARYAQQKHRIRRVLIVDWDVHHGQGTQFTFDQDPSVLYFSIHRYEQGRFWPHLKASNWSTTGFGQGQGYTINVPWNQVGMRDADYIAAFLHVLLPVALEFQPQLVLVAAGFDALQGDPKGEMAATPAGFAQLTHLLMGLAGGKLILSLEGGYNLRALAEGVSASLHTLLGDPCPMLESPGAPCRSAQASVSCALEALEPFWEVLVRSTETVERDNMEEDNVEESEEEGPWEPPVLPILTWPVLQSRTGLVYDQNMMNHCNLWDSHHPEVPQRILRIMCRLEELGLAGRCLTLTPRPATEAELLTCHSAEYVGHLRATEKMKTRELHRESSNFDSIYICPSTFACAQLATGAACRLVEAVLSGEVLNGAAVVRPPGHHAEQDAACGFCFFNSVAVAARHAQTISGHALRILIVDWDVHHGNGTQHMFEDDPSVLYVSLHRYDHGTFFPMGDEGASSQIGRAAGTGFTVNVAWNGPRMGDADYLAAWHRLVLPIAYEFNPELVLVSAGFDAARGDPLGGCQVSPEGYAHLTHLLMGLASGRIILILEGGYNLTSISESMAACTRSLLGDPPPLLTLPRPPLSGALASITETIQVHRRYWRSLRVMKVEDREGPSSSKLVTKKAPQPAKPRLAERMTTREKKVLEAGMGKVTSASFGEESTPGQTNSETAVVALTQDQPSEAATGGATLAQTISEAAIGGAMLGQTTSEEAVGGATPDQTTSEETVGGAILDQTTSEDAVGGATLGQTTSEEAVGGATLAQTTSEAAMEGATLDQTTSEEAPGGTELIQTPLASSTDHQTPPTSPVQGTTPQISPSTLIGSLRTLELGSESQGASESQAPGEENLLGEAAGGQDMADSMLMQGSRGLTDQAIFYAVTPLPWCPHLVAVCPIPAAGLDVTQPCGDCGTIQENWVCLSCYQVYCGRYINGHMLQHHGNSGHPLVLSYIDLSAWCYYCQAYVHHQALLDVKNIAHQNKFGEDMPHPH

PC-3 = assay: cells; type: functional, cell-based; details: Homo sapiens, PC-3, 48 h
Description: Antiproliferative activity against human PC3 cells assessed as inhibition of cell growth measured after 48 hrs by MTT assay

HepG2 = assay: cells; type: functional, cell-based; details: Homo sapiens, HepG2, 48 h
Description: Antiproliferative activity against human HepG2 cells assessed as inhibition of cell growth measured after 48 hrs by MTT assay

K562 = assay: cells; type: functional, cell-based; details: Homo sapiens, K562, 48 h
Description: Antiproliferative activity against human K562 cells assessed as inhibition of cell growth measured after 48 hrs by MTT assay

KG-1 [5] = assay: Induction of apoptosis in human KG-1 cells assessed as total apoptotic cells at 1 uM measured after 24 hrs by Annexin V-FITC/propidium iodide staining based flow cytometry analysis relative to control; type: functional
B16-F10 [6] = assay: Antitumor activity against mouse B16-F10 cells implanted in C57BL/6J mouse assessed as reduction on tumor volume at 60 mg/kg, IG administered for 12 days; type: functional, organism-based; details: time 12.0 day
KG-1 [7] = assay: Downregulation of SPT16 expression in human KG-1 cells assessed as chromatin damage at 0.5 to […] measured after 24 hrs by Western blot analysis; type: functional, cell-based; details: dose 0.5-2.5 µM
B16-F10 [8] = assay: Antitumor activity against mouse B16-F10 cells implanted in C57BL/6J mouse assessed as reduction on tumor weight at 60 mg/kg, IG administered for 12 days; type: functional, organism-based; details: time 12.0 day
[9] = Toxicity in C57BL/6J mouse implanted with mouse B16-F10 cells assessed as liver damage at 60 mg/kg, IG administered for 12 days H and E staining based histopathological analysis; type: organism-based; details: in vivo, po, 288 h, time 12 day
B16-F10 [10] = assay: Antitumor immunity against mouse B16-F10 cells implanted in C57BL/6J mouse assessed as increase in proportion of T cells in spleen by flow cytometry analysis; type: functional, cell-based
KG-1 [11] = assay: Downregulation of SSRP-1 expression in human KG-1 cells assessed as chromatin damage at 0.5 to […] measured after 24 hrs by Western blot analysis; type: functional, cell-based; details: dose 0.5-2.5 µM
[12] = Toxicity in C57BL/6J mouse implanted with mouse B16-F10 cells assessed as heart damage at 60 mg/kg, IG administered for 12 days H and E staining based histopathological analysis; type: organism-based; details: in vivo, po, 288 h, time 12 day
[13] = Toxicity in C57BL/6J mouse implanted with mouse B16-F10 cells assessed as effect on body weight at 60 mg/kg, IG administered for 12 days; type: organism-based; details: in vivo, po, 288 h, time 12 day
B16-F10 [14] = assay: Antitumor activity against mouse B16-F10 cells xenografted in C57BL/6J mouse assessed as change in tumor cell morphology into normal tissue at 60 mg/kg, IG administered for 12 days by H and E staining based histopathological analysis; type: functional, organism-based; details: time 12.0 day
[15] = Toxicity in C57BL/6J mouse implanted with mouse B16-F10 cells assessed as glomerular structure damage in kidney at 60 mg/kg, IG administered for 12 days H and E staining based histopathological analysis; type: organism-based; details: in vivo, po, 288 h, time 12 day
B16-F10 [16] = assay: Antitumor activity against mouse B16-F10 cells implanted in C57BL/6J mouse assessed as reduction on tumor size at 60 mg/kg, IG administered for 12 days; type: functional, organism-based; details: time 12.0 day
[17] = Toxicity in C57BL/6J mouse implanted with mouse B16-F10 cells assessed as spleen damage at 60 mg/kg, IG administered for 12 days H and E staining based histopathological analysis; type: organism-based; details: in vivo, po, 288 h, time 12 day
B16-F10 [18] = assay: Antitumor activity against mouse B16-F10 cells xenografted in C57BL/6J mouse assessed as reduction in tumor heterogeneity at 60 mg/kg, IG administered for 12 days by H and E staining based histopathological analysis; type: functional, organism-based; details: time 12.0 day
[19] = Toxicity in C57BL/6J mouse implanted with mouse B16-F10 cells assessed as lung damage at 60 mg/kg, IG administered for 12 days H and E staining based histopathological analysis; type: organism-based; details: in vivo, po, 288 h, time 12 day

Sequence of Histone deacetylase 1 (Q13547 whole entry): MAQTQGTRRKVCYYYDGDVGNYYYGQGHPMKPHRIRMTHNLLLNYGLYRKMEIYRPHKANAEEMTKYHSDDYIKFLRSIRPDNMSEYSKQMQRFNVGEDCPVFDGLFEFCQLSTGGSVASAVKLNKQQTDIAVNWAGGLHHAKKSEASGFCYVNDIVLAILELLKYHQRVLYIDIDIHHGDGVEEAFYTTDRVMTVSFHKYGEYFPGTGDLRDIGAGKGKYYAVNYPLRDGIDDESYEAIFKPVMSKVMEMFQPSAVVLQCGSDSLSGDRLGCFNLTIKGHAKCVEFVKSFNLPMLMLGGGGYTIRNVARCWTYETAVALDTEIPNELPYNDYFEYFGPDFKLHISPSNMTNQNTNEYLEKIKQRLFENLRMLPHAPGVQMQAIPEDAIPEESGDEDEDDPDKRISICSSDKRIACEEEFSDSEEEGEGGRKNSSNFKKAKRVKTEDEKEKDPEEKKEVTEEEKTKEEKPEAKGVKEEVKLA
Sequence of Histone deacetylase 2 (Q92769 whole entry): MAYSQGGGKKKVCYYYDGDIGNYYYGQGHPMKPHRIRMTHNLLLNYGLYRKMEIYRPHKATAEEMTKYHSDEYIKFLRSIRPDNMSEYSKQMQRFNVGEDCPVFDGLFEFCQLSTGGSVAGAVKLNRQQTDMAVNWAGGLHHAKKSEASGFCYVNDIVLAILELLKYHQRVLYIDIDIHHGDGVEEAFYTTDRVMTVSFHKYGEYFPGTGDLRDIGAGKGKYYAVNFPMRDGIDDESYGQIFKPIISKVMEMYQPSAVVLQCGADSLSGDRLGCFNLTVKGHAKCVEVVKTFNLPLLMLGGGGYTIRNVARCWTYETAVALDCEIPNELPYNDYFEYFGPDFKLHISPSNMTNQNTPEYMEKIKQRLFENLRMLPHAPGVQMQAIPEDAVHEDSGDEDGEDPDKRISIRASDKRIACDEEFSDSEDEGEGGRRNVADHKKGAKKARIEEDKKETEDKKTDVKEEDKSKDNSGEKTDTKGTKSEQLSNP

## O=C(CCCCCCOc1cccc(-c2nc3ccc(-c4nc5ccccc5[nH]4)cc3[nH]2)c1)NO
Histone deacetylase
  IC50: 17.9 nM

## O=C(CCCCCCOc1ccc(-c2nc3ccc(-c4nc5ccccc5[nH]4)cc3[nH]2)cc1)NO
Histone deacetylase 2
  IC50: 32 nM
Calf thymus DNA [1]
  Activity: Active
Histone deacetylase 1
  IC50: 31 nM
Histone deacetylase
  IC50: 7.6 nM
Calf thymus DNA [2]
  -TdeltaS: 45.3 kcal/mol
KG-1 [3]
  IC50: 1400 nM
HEL
  IC50: 1900 nM
DNA
  Activity: Active
Histone deacetylase 8
  IC50: > 20000 nM
[4]
  IC50: 29 nM
PC-3
  IC50: 4400 nM
HepG2
  IC50: 11000 nM
K562
  IC50: 510 nM

## O=C(COc1cccc(-c2nc3ccc(-c4nc5ccccc5[nH]4)cc3[nH]2)c1)NO
Histone deacetylase
  IC50: > 1000 nM

## O=C(CCCCOc1ccc(-c2nc3ccccc3[nH]2)cc1)NO
Histone deacetylase
  IC50: 189.1 nM

## O=C(CCCOc1cccc(-c2nc3ccc(-c4nc5ccccc5[nH]4)cc3[nH]2)c1)NO
Histone deacetylase
  IC50: 50 nM

## CN1CCN(c2ccc3nc(-c4ccc5nc(-c6ccc(O)cc6)[nH]c5c4)[nH]c3c2)CC1
KG-1 [3]
  IC50: 42000 nM

## O=C(CCCCCOc1cccc(-c2nc3ccc(-c4nc5ccccc5[nH]4)cc3[nH]2)c1)NO
Histone deacetylase
  IC50: 27.4 nM

## O=C(CCCOc1ccc(-c2nc3ccc(-c4nc5ccccc5[nH]4)cc3[nH]2)cc1)NO
Histone deacetylase
  IC50: > 1000 nM

## O=C(CCCCCCC(=O)Nc1ccccc1)NO [VORINOSTAT]
KG-1 [5]
  Activity: 18.2%
B16-F10 [6]
  Activity: Active
KG-1 [7]
  Activity: inactive
B16-F10 [8]
  Activity: Active
[9]
  Activity: Non-Toxic
B16-F10 [10]
  Activity: Active
KG-1 [11]
  Activity: inactive
[12]
  Activity: Non-Toxic
[13]
  Activity: Non-Toxic
B16-F10 [14]
  Activity: Active
[15]
  Activity: Toxic
B16-F10 [16]
  Activity: Active
KG-1 [3]
  IC50: 70 nM
[17]
  Activity: Non-Toxic
B16-F10 [18]
  Activity: Active
[19]
  Activity: Non-Toxic

## O=C(COc1ccc(-c2nc3ccc(-c4nc5ccccc5[nH]4)cc3[nH]2)cc1)NO
Histone deacetylase
  IC50: > 1000 nM

## O=C(COc1ccc(-c2nc3ccccc3[nH]2)cc1)NO
Histone deacetylase
  IC50: 156.7 nM

## O=C(CCCCOc1ccc(-c2nc3ccc(-c4nc5ccccc5[nH]4)cc3[nH]2)cc1)NO
Histone deacetylase
  IC50: 218.8 nM

## O=C(CCCCCCCOc1ccc(-c2nc3ccccc3[nH]2)cc1)NO
Histone deacetylase
  IC50: 49.3 nM

## O=C(CCCCCOc1cccc(-c2nc3ccccc3[nH]2)c1)NO
Histone deacetylase
  IC50: 118.6 nM

## O=C(CCCCCOc1ccc(-c2nc3ccc(-c4nc5ccccc5[nH]4)cc3[nH]2)cc1)NO
Histone deacetylase
  IC50: 43.62 nM

## O=C(COc1cccc(-c2nc3ccccc3[nH]2)c1)NO
Histone deacetylase
  IC50: > 1000 nM

## O=C(CCCCCCCOc1ccc(-c2nc3ccc(-c4nc5ccccc5[nH]4)cc3[nH]2)cc1)NO
Histone deacetylase
  IC50: 20.1 nM

## O=C(CCCCOc1cccc(-c2nc3ccccc3[nH]2)c1)NO
Histone deacetylase
  IC50: 194.4 nM

## O=C(CCCOc1ccc(-c2nc3ccccc3[nH]2)cc1)NO
Histone deacetylase
  IC50: 981.3 nM

## O=C(CCCCCCOc1ccc(-c2nc3ccccc3[nH]2)cc1)NO
Histone deacetylase
  IC50: 40.3 nM

## O=C(CCCCCOc1ccc(-c2nc3ccccc3[nH]2)cc1)NO
Histone deacetylase
  IC50: 76 nM

## O=C(CCCCCCCOc1cccc(-c2nc3ccc(-c4nc5ccccc5[nH]4)cc3[nH]2)c1)NO
Histone deacetylase 2
  IC50: 81 nM
Histone deacetylase 1
  IC50: 47 nM
Histone deacetylase
  IC50: 7.3 nM
KG-1 [3]
  IC50: 1600 nM
HEL
  IC50: 2300 nM
Histone deacetylase 8
  IC50: > 20000 nM
[4]
  IC50: 23 nM
PC-3
  IC50: 6900 nM
HepG2
  IC50: 16000 nM
K562
  IC50: 2900 nM

## O=C(CCCCOc1cccc(-c2nc3ccc(-c4nc5ccccc5[nH]4)cc3[nH]2)c1)NO
Histone deacetylase
  IC50: 304.3 nM

## O=C(CCCOc1cccc(-c2nc3ccccc3[nH]2)c1)NO
Histone deacetylase
  IC50: 490.4 nM
